Measurements as given in patent US20250059231A1, “Protease inhibitors” (priority 2021, published 2025).
Where a SMILES comes first, the peptide text is derived from it. [ ]: non-standard residue; d: D form. The star is where a group is joined. Palmitoyl = CCCCCCCCCCCCCCCC(=O)*; Myristoyl = CCCCCCCCCCCCCC(=O)*; Lauroyl = CCCCCCCCCCCC(=O)*; hLys = NCCCCC[C@H](N)C(=O)O; β3hK = NCCCC[C@H](N)CC(=O)O; N(Me)OMe = CON(C)*

Target: T1, DENV protease (Dengue virus type 2, UniProt P29990)
T1 construct: The virus-encoded dengue protease comprises the amino-terminal 180 amino acids of NS3 (NS3pro) of the polyprotein
T1 sequence (P29990 1398-1437): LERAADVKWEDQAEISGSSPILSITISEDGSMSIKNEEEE
T1 sequence (P29990 1476-1653): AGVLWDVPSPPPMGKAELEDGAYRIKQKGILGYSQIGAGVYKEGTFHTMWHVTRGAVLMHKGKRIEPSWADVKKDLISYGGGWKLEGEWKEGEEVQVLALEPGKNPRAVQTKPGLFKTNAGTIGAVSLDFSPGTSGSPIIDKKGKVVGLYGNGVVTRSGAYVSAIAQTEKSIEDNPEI
Assay: biochemical
Conditions: read-out: inhibition of DENV
Experimental: Dilutions were made starting from 10 mM stock solutions in DMSO and final concentrations were measured in triplicates. The inhibitors were preincubated for 15 min with DENV protease (100 nM) in the assay buffer (50 mM Tris-HCl pH 9.0, ethylene glycol (10% v/v), and 0.0016% Brij 58). The enzymatic reaction was initiated by the addition of the FRET substrate (final concentration 50 μM) to obtain a final assay volume of 100 μL per well. The enzymatic activity was monitored for 15 min and determined as a slope of relative fluorescence units per second (RFU/s) for each concentration. The mean of the triplicates were plotted against the corresponding concentration in CDDVault to determine the IC50-values. Analogous procedures were used to determine the inhibitory potency on WNV (Kühl et al., J. Med. Chem. 2020, 63 (15): 8179-8197) and ZIKA protease (Nitsche et al., ACS Med. Chem. Lett. 2019 Feb. 14; 10 (2): 168-174). For selectivity screening of active candidates, similar biochemical assays with human serine proteases trypsin (Weigel et al., J. Med. Chem. 2015, 58 (19), 7719-7733.) and/or thrombin (Nitsche et al., J. Med. Chem. 2013, 56 (21), 8389-8403) were used.

inhibition at 1 µM	Compound	inhibition at 50 µM
–	CCCCCCCCCCCCCCCCNC(=O)[C@H](CCCCN)NC(=O)[C@H](C)NC(=O)[C@@H](N)CCCCN [compound 98]	≥ 25%
–	CCCCCCCCCCCCCCCC(=O)N[C@@H](CCCCN)C(=O)N[C@@H](CCCCN)C(N)=O [compound 110]	≥ 25%
–	CCCCCCCCCCCCCCCC(=O)N[C@@H](CCCCN)C(=O)N[C@@H](CCCNC(=N)N)C(N)=O [compound 111] (Palmitoyl-Lys-Arg-NH2)	≥ 25%
–	CCCCCCCCCCCCCCCC(=O)N[C@@H](CCCNC(=N)N)C(=O)N[C@@H](CCCNC(=N)N)C(N)=O [compound 112] (Palmitoyl-Arg-Arg-NH2)	≥ 25%
–	CCCCCCCCCCCCCCCC(=O)N[C@@H](CCCCN)CC(=O)N1CCC[C@H]1C(=O)N[C@@H](C)C(=O)N[C@H](CCCCN)C(N)=O [compound 119] (Palmitoyl-[β3hK]PA[dK]-NH2)	≥ 25%
–	CCCCCCCCCCCCCCCC(=O)N[C@@H](CCCCN)CCN1CCC[C@H]1CC(=O)N[C@@H](C)C(=O)N[C@@H](Cc1c[nH]c2ccccc12)C(N)=O [compound 120]	≥ 25%
–	CCCCCCCCCCCCCCCC(=O)N[C@@H](CCCCCN)C(=O)N1CCC[C@H]1C(=O)N[C@@H](CCCCN)C(N)=O [compound 121] (Palmitoyl-[hLys]-Pro-Lys-NH2)	≥ 25%
–	CCCCCCCCCCCCCCCC(=O)N[C@@H](CCCCN)C(=O)N1CCC[C@H]1C(=O)N[C@@H](C)C(=O)N[C@@H](CCCCN)C(=O)O [compound 126] (Palmitoyl-KPAK-OH)	≥ 25%
–	CCCCCCCCCCCCCCCC(=O)N[C@@H](CCCCN)C(=O)N1CCC[C@H]1C(=O)N[C@@H](C)C(=O)N[C@@H](CCCCN)C(=O)NS(=O)(=O)C1CC1 [compound 127]	≥ 25%
–	CCCCCCCCCCCCCCCC(=O)N[C@@H](CCCCN)C(=O)N1CCC[C@H]1C(=O)N[C@@H](C)C(=O)N[C@@H](CCCCN)C(=O)c1ccccc1 [compound 128]	≥ 25%
–	CCCCCCCCCCCCCCCC(=O)N[C@@H](CCCCN)C(=O)N1CCC[C@H]1C(=O)N[C@@H](C)C(=O)N[C@H](C(N)=O)c1ccc(OCc2ccccc2)cc1 [compound 130]	≥ 25%
–	CCCCCCCCCCCCCCCC(=O)N[C@@H](CCCCN)C(=O)N[C@@H](C)C(=O)N1CCC[C@H]1C(=O)N[C@@H](CCCCN)C(N)=O [compound 133] (Palmitoyl-KAPK-NH2)	≥ 25%
–	CCCCCCCCCCCCCCCC(=O)N[C@@H](CCCCN)C(=O)N[C@@H](C)C(=O)N[C@@H](C)C(=O)N[C@H](CCCCN)C(=O)O [compound 134] (Palmitoyl-KAA[dK]-OH)	≥ 25%
–	CCCCCCCCCCCCCCCC(=O)N[C@@H](CCCCN)C(=O)N[C@@H](C)C(=O)N[C@@H](C)C(=O)N[C@H](CCCCN)C(=O)NS(=O)(=O)C1CC1 [compound 135]	≥ 25%
–	CCCCCCCCCCCCCCCC(=O)N[C@@H](CCCCN)C(=O)N[C@@H](C)C(=O)N[C@@H](C)C(=O)N[C@@H](C(N)=O)c1ccc(OCc2ccccc2)cc1 [compound 138]	≥ 25%
–	CCCCCCCCCCCCCCCC(=O)N[C@@H](CCCCN)C(=O)N[C@@H](C)C(=O)N[C@@H](C)C(=O)N[C@H](C(N)=O)c1ccc(OCc2ccccc2)cc1 [compound 139]	≥ 25%
–	CCCCCCCCCCCCCCCC(=O)N[C@@H](CCCCN)C(=O)N[C@H](C)C(=O)N[C@@H](CCCCN)C(N)=O [compound 146] (Palmitoyl-Lys-[dA]-Lys-NH2)	≥ 25%
–	CCCCCCCCCCCCCCCC(=O)N[C@@H](CCCCN)C(=O)N[C@@H](C)C(=O)N[C@@H](C)C(=O)N[C@H](C)C(N)=O [compound 147] (Palmitoyl-KAA[dA]-NH2)	≥ 25%
–	CCCCCCCCCCCCCCCC(=O)N[C@@H](C)C(=O)N[C@@H](C)C(=O)N[C@@H](CCCCN)C(=O)N[C@H](C)C(N)=O [compound 149] (Palmitoyl-AAK[dA]-NH2)	≥ 25%

inhibition at 1 µM	Compound	inhibition at 50 µM
–	CCCCCCCCCCCCCCCC(=O)N[C@@H](C)C(=O)N[C@@H](C)C(=O)N[C@@H](C)C(=O)N[C@H](CCCCN)C(N)=O [compound 150] (Palmitoyl-AAA[dK]-NH2)	≥ 25%
–	CCCCCCCCCCCCCC(=O)N[C@@H](CCCCN)C(=O)N[C@@H](C)C(=O)N[C@@H](C)C(=O)N[C@H](CCCCN)C(N)=O [compound 151] (Myristoyl-KAA[dK]-NH2)	≥ 25%
–	CCCCCCCCCCCC(=O)N[C@@H](C)C(=O)N[C@@H](CCCCN)C(=O)N[C@@H](C)C(=O)N[C@H](C)C(N)=O [compound 152] (Lauroyl-AKA[dA]-NH2)	≥ 25%
–	CCCCCCCCCCCCCCCC(=O)N[C@@H](CCCCN)C(=O)N[C@H](C)C(=O)N[C@@H](C)C(=O)N[C@@H](CCCCN)C(N)=O [compound 158] (Palmitoyl-K[dA]AK-NH2)	≥ 25%
–	CCCCCCCCCCCCCCCC(=O)N[C@H](CCCCN)C(=O)N[C@@H](C)C(=O)N[C@@H](CCCCN)C(N)=O [compound 159] (Palmitoyl-[dK]-Ala-Lys-NH2)	≥ 25%
–	CCCCCCCCCCCCCCCC(=O)N[C@@H](CCCCN)C(=O)N[C@@H](C)C(=O)N[C@H](CCCCN)C(N)=O [compound 160] (Palmitoyl-Lys-Ala-[dK]-NH2)	≥ 25%
–	CCCCCCCCCCCCCCCC(=O)N[C@@H](CCCNC(=N)N)C(=O)N[C@@H](CCCCN)C(N)=O [compound 161] (Palmitoyl-Arg-Lys-NH2)	≥ 25%
–	CCCCCCCCCCCCCCCC(=O)N[C@@H](CCCCN)C(=O)N[C@@H](Cc1c[nH]cn1)C(N)=O [compound 162]	≥ 25%
–	CCCCCCCCCCCCCCCC(=O)N[C@@H](CCCCN)C(=O)N1CCC[C@H]1C(=O)N[C@@H](C)C(=O)N[C@@H](Cc1c[nH]cn1)C(N)=O [compound 163] (Palmitoyl-KPAH-NH2)	≥ 25%
–	CCCCCCCCCCCCCCCC(=O)N[C@@H](CCCCN)C(=O)N1CCC[C@H]1C(=O)N[C@@H](C)C(=O)N[C@H](Cc1c[nH]cn1)C(N)=O [compound 164] (Palmitoyl-KPA[dH]-NH2)	≥ 25%
–	CCCCCCCCCCCCCCCC(=O)N[C@@H](CCCCN)C(=O)N1CCC[C@H]1C(=O)N[C@@H](C)C(=O)N[C@@H](CCc1c[nH]cn1)C(N)=O [compound 165]	≥ 25%
–	CCCCCCCCCCCCCCCC(=O)N[C@@H](CCCCN)C(=O)N[C@@H](C)C(=O)N[C@@H](Cc1cnc[nH]1)C(N)=O [compound 166] (Palmitoyl-Lys-Ala-His-NH2)	≥ 25%
≥ 20%	CCCCCCCCCCCCCCCC(=O)N[C@@H](CCCCN)C(=O)N[C@@H](C)C(=O)N[C@@H](C)C(=O)N[C@@H](CCc1c[nH]cn1)C(N)=O [compound 172]	≥ 25%
≥ 20%	CCCCCCCCCCCCCCCC(=O)N[C@@H](CCCCN)C(=O)N[C@@H](C)C(=O)N[C@@H](C)C(=O)N[C@H](CCc1c[nH]cn1)C(N)=O [compound 173]	≥ 25%
–	CCCCCCCCCCCCCCCC(=O)N[C@@H](CCCCN)C(=O)N[C@@H](C)C(=O)N[C@@H](C)C(=O)N[C@@H](CCCCN)C(=O)N(C)OC [compound 177] (Palmitoyl-KAAK-{N(Me)OMe})	≥ 25%
–	CCCCCCCCCCCCCCCC(=O)N[C@@H](CCCCN)C(=O)N[C@@H](C)C(=O)N[C@@H](CCCCN)C(=O)NS(=O)(=O)C1CC1 [compound 178]	≥ 25%
–	CCCCCCCCCCCCCCCC(=O)N[C@@H](CCCCN)C(=O)N[C@@H](C)C(=O)N[C@H](CCCCN)C(=O)NS(=O)(=O)C1CC1 [compound 179]	≥ 25%
–	CCCCCCCCCCCCCCCC(=O)N[C@@H](CCCCN)C(=O)N[C@@H](C)C(=O)N[C@@H](C)C(=O)N[C@@H](CCCCN)C(=O)N(C)C [compound 187] (Palmitoyl-KAAK-NMe2)	≥ 25%
–	CCCCCCCCCCCCCCCC(=O)N[C@@H](CCCCN)C(=O)N[C@@H](C)C(=O)N[C@@H](CCCCN)C(=O)O [compound 188] (Palmitoyl-Lys-Ala-Lys-OH)	≥ 25%

Compound	inhibition at 1 µM	inhibition at 50 µM
CCCCCCCCCCCCCCCC(=O)N[C@@H](C)C(=O)N[C@@H](CCCCN)C(=O)N[C@@H](C)C(=O)N[C@H](C)C(N)=O [compound 148] (Palmitoyl-AKA[dA]-NH2)	≥ 20%	≥ 25%
